Laboratory results as given in ChEMBL document CHEMBL1201862, “PubChem BioAssay data set” (2004).
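Following 48 hours of exposure in 96-well plates, responses at five concentrations were used to interpolate endpoints linearly. The concentration for 50% growth inhibition is given as GI50.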 Active and inactive are the calls of the source. Rule as the data show it: active = GI50 up to about 1.1 µM and inactive = higher.

Legend:
Assay in all cases: NCI tumour cell line growth inhibition, 48 h
[1] = test system: NCI-H226
[2] = test system: SN12C
[3] = test system: HOP-62
[4] = test system: SNB-19
[5] = test system: M14
[6] = test system: IGROV-1
[7] = test system: UACC-62
[8] = test system: NCI-H460
[9] = test system: SK-OV-3
[10] = test system: SNB-75
[11] = test system: CAKI-1
[12] = test system: HCT-15
[13] = test system: NCI-H522
[14] = test system: RPMI-8226
[15] = test system: SF-539
[16] = test system: A549
[17] = test system: UO-31
[18] = test system: OVCAR-5
[19] = test system: NCI/ADR-RES

Compound	GI50 [1]	GI50 [2]	GI50 [3]	GI50 [4]	GI50 [5]	GI50 [6]	GI50 [7]	GI50 [8]	GI50 [9]	GI50 [10]	GI50 [11]	GI50 [12] [µM]	GI50 [13]	GI50 [14]	GI50 [15]	GI50 [16]	GI50 [17]	GI50 [18]	GI50 [19]
Cc1ccc(Nc2cccc3c2C(=O)c2cccc(Nc4ccc(C)cc4S(=O)(=O)O)c2C3=O)c(S(=O)(=O)O)c1	> 100 µM (inactive)	> 100 µM (inactive)	> 100 µM (inactive)	> 100 µM (inactive)	> 100 µM (inactive)	> 100 µM (inactive)	> 100 µM (inactive)	> 100 µM (inactive)	> 100 µM (inactive)	> 100 µM (inactive)	> 100 µM (inactive)	> 100	> 100 µM (inactive)	> 100 µM (inactive)	> 100 µM (inactive)	> 100 µM (inactive)	> 100 µM (inactive)	–	–
O=C(CC(=O)c1ccccc1)c1ccccc1.O=C(CC(=O)c1ccccc1)c1ccccc1.O=C(CC(=O)c1ccccc1)c1ccccc1.[SiH4]	8.87 µM (inactive)	3.95 µM (inactive)	7.59 µM (inactive)	4.74 µM (inactive)	6.24 µM (inactive)	5.4 µM (inactive)	3.89 µM (inactive)	–	5.79 µM (inactive)	10.4 µM (inactive)	4.92 µM (inactive)	–	2.26 µM (inactive)	4.03 µM (inactive)	8.67 µM (inactive)	3.01 µM (inactive)	4.56 µM (inactive)	12.4 µM (inactive)	–
CN(C)CCNC(=O)c1cccc2c(NCC(=O)O)c3ccccc3nc12	4.82 µM (inactive)	9.98 µM (inactive)	11.6 µM (inactive)	6.49 µM (inactive)	17 µM (inactive)	8.51 µM (inactive)	15.1 µM (inactive)	–	21.1 µM (inactive)	17.6 µM (inactive)	–	10.1	10.6 µM (inactive)	16.5 µM (inactive)	–	7.85 µM (inactive)	7.4 µM (inactive)	13.5 µM (inactive)	11.9 µM (inactive)
Cc1ccccc1C1OC(=O)c2ccc3ccccc3c21 (stereo unspecified)	4.75 µM (inactive)	5.47 µM (inactive)	0.442 µM (active)	8.87 µM (inactive)	2.97 µM (inactive)	5 µM (inactive)	2.94 µM (inactive)	3.23 µM (inactive)	2.52 µM (inactive)	3.55 µM (inactive)	6.21 µM (inactive)	2.93	1.82 µM (inactive)	1.61 µM (inactive)	3.27 µM (inactive)	5.48 µM (inactive)	2.77 µM (inactive)	8.57 µM (inactive)	–
Cc1cc(C)c2c(c1)N[S@@](=O)S2	19.2 µM (inactive)	19.4 µM (inactive)	57.9 µM (inactive)	30.8 µM (inactive)	17 µM (inactive)	19.4 µM (inactive)	18.6 µM (inactive)	21.8 µM (inactive)	31.4 µM (inactive)	32.5 µM (inactive)	25.2 µM (inactive)	16.5	17.4 µM (inactive)	34.7 µM (inactive)	26.1 µM (inactive)	27.9 µM (inactive)	23 µM (inactive)	30.6 µM (inactive)	–
COC(=O)Cc1nc2ccccc2o1	> 100 µM (inactive)	> 100 µM (inactive)	> 100 µM (inactive)	> 100 µM (inactive)	51.6 µM (inactive)	> 100 µM (inactive)	20.2 µM (inactive)	80.5 µM (inactive)	> 100 µM (inactive)	> 100 µM (inactive)	37.9 µM (inactive)	33.3	40.1 µM (inactive)	17.8 µM (inactive)	72.3 µM (inactive)	74.6 µM (inactive)	> 100 µM (inactive)	45.2 µM (inactive)	–
O=c1[nH]c2ccsc2c(=O)n1COCc1ccccc1	> 100 µM (inactive)	> 100 µM (inactive)	> 100 µM (inactive)	> 100 µM (inactive)	> 100 µM (inactive)	> 100 µM (inactive)	–	> 100 µM (inactive)	–	> 100 µM (inactive)	> 100 µM (inactive)	> 100	> 100 µM (inactive)	> 100 µM (inactive)	> 100 µM (inactive)	> 100 µM (inactive)	> 100 µM (inactive)	> 100 µM (inactive)	> 100 µM (inactive)
NC(CNc1ccc(O)cc1)C(=O)O (stereo unspecified)	> 100 µM (inactive)	> 100 µM (inactive)	> 100 µM (inactive)	> 100 µM (inactive)	80.7 µM (inactive)	–	20.9 µM (inactive)	> 100 µM (inactive)	> 100 µM (inactive)	> 100 µM (inactive)	81.8 µM (inactive)	> 100	> 100 µM (inactive)	> 100 µM (inactive)	–	> 100 µM (inactive)	> 100 µM (inactive)	> 100 µM (inactive)	–
CSc1ccc(N2C(=O)C3c4[nH]c5ccccc5c4C4CCC(C(C)(C)C)CC4C3C2=O)cc1 (stereo unspecified)	19.1 µM (inactive)	16.1 µM (inactive)	12.2 µM (inactive)	19.1 µM (inactive)	27.5 µM (inactive)	13.8 µM (inactive)	13.8 µM (inactive)	14.1 µM (inactive)	16.6 µM (inactive)	18.5 µM (inactive)	19.9 µM (inactive)	66.2	16.2 µM (inactive)	28.4 µM (inactive)	18.3 µM (inactive)	15.3 µM (inactive)	16.5 µM (inactive)	48.3 µM (inactive)	–
CCOc1cc(NC(C)=O)ccc1C(=O)NN1C(=O)/C(=C/c2cc(OC)c(OC)c(OC)c2)N=C1c1ccccc1	> 100 µM (inactive)	> 100 µM (inactive)	–	> 100 µM (inactive)	64.9 µM (inactive)	> 100 µM (inactive)	> 100 µM (inactive)	91.6 µM (inactive)	> 100 µM (inactive)	–	> 100 µM (inactive)	> 100	28.3 µM (inactive)	–	> 100 µM (inactive)	> 100 µM (inactive)	> 100 µM (inactive)	> 100 µM (inactive)	> 100 µM (inactive)
CC(=O)Nc1cc(Nc2cc(O)nc(O)n2)ccc1C	> 100 µM (inactive)	> 100 µM (inactive)	> 100 µM (inactive)	> 100 µM (inactive)	> 100 µM (inactive)	> 100 µM (inactive)	–	> 100 µM (inactive)	–	> 100 µM (inactive)	–	> 100	–	> 100 µM (inactive)	> 100 µM (inactive)	> 100 µM (inactive)	> 100 µM (inactive)	> 100 µM (inactive)	> 100 µM (inactive)
NCCCCC(NC(=O)C(N)Cc1ccc(O)cn1)C(=O)O (stereo unspecified)	> 100 µM (inactive)	> 100 µM (inactive)	> 100 µM (inactive)	> 100 µM (inactive)	–	> 100 µM (inactive)	–	> 100 µM (inactive)	–	–	> 100 µM (inactive)	> 100	> 100 µM (inactive)	> 100 µM (inactive)	> 100 µM (inactive)	> 100 µM (inactive)	> 100 µM (inactive)	> 100 µM (inactive)	> 100 µM (inactive)
C=CCN1C(=O)CC(=O)N(NC2=NNC3(C(=O)N2)c2ccccc2-c2ccccc23)C1=S	13.8 µM (inactive)	37.2 µM (inactive)	26.7 µM (inactive)	48.8 µM (inactive)	> 100 µM (inactive)	38.9 µM (inactive)	28.5 µM (inactive)	26.1 µM (inactive)	42.2 µM (inactive)	48.2 µM (inactive)	48.3 µM (inactive)	35.7	32.6 µM (inactive)	–	59.4 µM (inactive)	34.2 µM (inactive)	31.8 µM (inactive)	53.7 µM (inactive)	25.4 µM (inactive)
CC(=O)OCC1OC(n2c(=O)n(-c3ccccc3)c(=O)c3cc(Br)cc(Br)c32)C(OC(C)=O)C(OC(C)=O)C1OC(C)=O (stereo unspecified)	> 100 µM (inactive)	> 100 µM (inactive)	88.7 µM (inactive)	> 100 µM (inactive)	> 100 µM (inactive)	> 100 µM (inactive)	> 100 µM (inactive)	> 100 µM (inactive)	> 100 µM (inactive)	74.1 µM (inactive)	2.56 µM (inactive)	> 100	> 100 µM (inactive)	> 100 µM (inactive)	> 100 µM (inactive)	> 100 µM (inactive)	> 100 µM (inactive)	> 100 µM (inactive)	–
O=C(Nc1ccccc1Cl)c1ccc([N+](=O)[O-])cc1	> 100 µM (inactive)	> 100 µM (inactive)	47.4 µM (inactive)	41.2 µM (inactive)	> 100 µM (inactive)	> 100 µM (inactive)	> 100 µM (inactive)	> 100 µM (inactive)	> 100 µM (inactive)	22.4 µM (inactive)	> 100 µM (inactive)	> 100	> 100 µM (inactive)	> 100 µM (inactive)	64.3 µM (inactive)	> 100 µM (inactive)	> 100 µM (inactive)	–	–
c1ccc(C2OC3(CCC[C@H]4C[C@H]43)O[C@H]2c2ccccc2)cc1 (stereo partly specified)	26.2 µM (inactive)	34.4 µM (inactive)	56.1 µM (inactive)	44.4 µM (inactive)	43.9 µM (inactive)	> 100 µM (inactive)	57.3 µM (inactive)	39.8 µM (inactive)	> 100 µM (inactive)	26.5 µM (inactive)	29.6 µM (inactive)	33.8	22.7 µM (inactive)	40.3 µM (inactive)	> 100 µM (inactive)	43.2 µM (inactive)	38.7 µM (inactive)	60.8 µM (inactive)	–
